Source: US20160251402A1, “MICROPEPTIDES AND USE OF SAME FOR MODULATING GENE EXPRESSION” (UNIVERSITE PAUL SABATIER TOULOUSE III, priority 2013, published 2016)

Tested on: HsmiR155
Assay: Relative expression of Pre-miR155 in transfected HeLa cells
Type: cell-based, Homo sapiens
Conditions: HeLa cells transfected to overexpress HsmiPEP155
Source text: The DNA fragments of interest (HsmiPEP155 and the mutated miPEP) were synthesized or amplified by PCR using specific primers, and then cloned using the enzymes XhoI and NotI into a pUAS plasmid permitting their overexpression by means of the GAL4 transcription factor, the expression of which is controlled by a constitutive strong promoter.
The different constructs were produced either by PCR amplification on genomic DNA of HeLa cells, or by RT-PCR on total RNAs of L428 human cells. The amplified PCR fragments are digested with the HindIII/EcoRI restriction enzymes and then cloned into the vector pcDNA3.1. The DH5α strain of Escherichia coli is electroporated and then cultured on a solid medium (2YT+agar+ampicillin). The plasmid DNA from different clones is then prepared and sequenced for verification. The constructs are then prepared using the QIAfilter Plasmid Midi kit (QIAGEN) and stored at −20° C.
The HeLa cells (established tumour line, ATCC CCL-2.2) are cultured in a 6-well plate in complete medium [(DMEM (1x)+Glutamax+4.5 g/L glucose without pyruvate+1x penicillin/streptomycin+1 mM Na-pyruvate+10% calf serum] and placed in an incubator at 37° C. and 5% CO2.
The cells are transfected when they are at 50% confluence. […]
10-15 μg of total RNAs is then analysed by Northern blot on 15% acrylamide gel [solution of acrylamide/40% bis-acrylamide, ratio 19:1], 7M urea in TBE 1x. […]

“MEMALMVAQTRKGKSVV (listed as Homo sapiens) [HsmiPEP155]” was tested, and the “relative expression of Pre-miR155” value was “increases the expression of HsmiR155”.
